Source: PMC11768344 (Pharmaceutics, 2024)
Converted amounts (≈) assume the structure as drawn. Like-named read-outs stand apart in the source and are kept apart here. Values belong to the molecule of their own block, whether it stands above or below them.

Columns and labels:
[1] = in vitro drug release, inverted-cup method; format: physicochemical; settings: for solubility: PBS pH 7.4 with 0.25% SDS (release medium), pH 7.4, read-out: solubility in the release media
Experimental: In a preliminary study, the release of ROP-ST from its oil solution was investigated at 25 °C using the dialysis method. Briefly, 0.5 mL of ROP-ST oil solution was placed into a dialysis bag (MWCO: 14 kDa) and immersed into 150 mL of PBS solution (pH 7.4) with 0.5% sodium dodecyl sulfate (SDS). The dialysis media were stirred with a magnetic bar at 100 r/min. An aliquot (1 mL) was withdrawn at predetermined time intervals, and ROP-ST in the samples was quantified using HPLC−UV. […] Therefore, an “inverted-cup” method was utilized in this study to investigate the release profile of ROP-ST (Figure 3a). Briefly, a beaker containing 150 mL of PBS solution (pH 7.4, with 0.25% SDS) as the release medium was placed on a magnetic stirrer and stirred continuously at 100 r/min at room temperature (25 °C). A transparent glass cylinder (inner diameter: 1 cm) with two open endings was placed vertically in the beaker, with one ending immersed in the PBS solution and the other ending exposed to air. Then, 1 mL of ROP-ST oil solution was added to a glass cylinder, and the ending exposed in air was sealed with a plastic thin-film. In the meantime, the beaker was also sealed with a plastic thin-film. At predetermined time intervals, an aliquot (1 mL) of the release medium were withdrawn by a syringe, and 1 mL of fresh release medium was immediately replenished. The concentration of ROP-ST in the samples was determined by HPLC−UV, and the cumulative release of ROP-ST was calculated accordingly. The experiment was performed in triplicates.
For comparison, the release of an ROP-free base from its soybean oil solution and the release of aripiprazole lauroxil (APL) from its soybean oil solution were also investigated. […] To prepare the APL oil solution, 90.4 mg of APL was dissolved and mixed in 5 mL of soybean oil. The concentration of APL was 18.08 mg/mL (27.37 mM). […] Moreover, the marketed APL injectables are suspensions; therefore, the release of APL from its suspension was also studied. This was carried out by placing 5.89 mg of APL into 150 mL of PBS7.4 solution directly, which contained 0.25% SDS. The solution was also stirred and sampled in the same way as described above. APL was analyzed according to the previously reported method.

[2] = n-octanol/water partition coefficient (experimental Log P); format: physicochemical; settings: 37 °C, read-out: Log Pexp., experimental Log P
Experimental: Approximately 1 mg of ROP-ST and ROP-free base were dissolved in a bi-phase mixture of water-saturated n-octanol solution and n-octanol-saturated water (5 mL:5 mL), respectively. After equilibration in a water bath shaker (37 °C) for 24 h, the two phases were sampled separately and diluted with acetonitrile. […] The Log P value of each compound was calculated accordingly. The experiments were performed in triplicates.

[3] = saturated solubility (shake, 37 °C, 72 h, HPLC-UV); format: physicochemical; settings: for SPBS 7.4, the solubility in PBS 7.4 solution: PBS pH 7.4, 37 °C
Experimental: After centrifugation at 12,000 r/min for 10 min (TGL-16C centrifuge; Anting Scientific Instrument Company, Shanghai, China), the supernatant was withdrawn, and the solution was filtered through a syringe filter (pore size: 0.45 μm). […] The experiments were performed in triplicates.
Quantification of ROP-ST was performed using an HPLC−UV system consisting of an LC-10AT VP pump, an SPD-10A VP UV–vis detector, a CTO-10A column oven, a SIL-10AF autosampler, and an SCL-10A VP controller (Shimadzu Corporation; Kyoto, Japan). Data were collected and processed using LC-solution software. Isocratic elution was performed on a Diamonsil C18 column (150 mm × 4.6 mm I.D., 5 µm), and an EasyGuard C18 guard column (10 × 4.0 mm I.D., 5 µm) was mounted upstream from the analytical column (Dikma Technologies; Beijing, China). The column temperature was kept at 35 °C, and the UV absorbance wavelength was set at 215 nm. The mobile phase, comprising 88% (v/v) acetonitrile and 12% (v/v) water with 0.1% (v/v) trifluoroacetic acid, was used after filtering through a filter membrane (pore size: 0.45 μm) and degassing within an ultrasonic water bath (KQ-500VDE Ultrasonic Cleaner; Kunshan, China) for 40 min. The flow rate was maintained at 1.0 mL/min, and the injection volume was 20 µL. The calibration curve was linear in the range of 1–200 μM, and the correlation coefficient was >0.9998. […] The lower limit of quantification (LOQ) of ROP-ST was 1 μM (equal to 0.57 μg/mL). The validation of the HPLC method can be found in Supplemental Materials.
Briefly, the column temperature was kept at 35 °C, and the UV absorbance wavelength was set at 240 nm. The mobile phase comprised 50% (v/v) acetonitrile and 50% (v/v) phosphate buffer. The phosphate buffer was prepared by mixing 1.3 mL of sodium dihydrogen phosphate (1 mol/L) with 32.5 mL of disodium hydrogen phosphate (0.5 mol/L) and diluting to 1 L by water, and then the pH value was adjusted to 8.0. The flow rate was maintained at 1.0 mL/min, and the injection volume was 20 µL. The validation of the quantification method can be found in the Supplementary Materials.

[4] = in vitro drug release, dialysis method (preliminary); format: physicochemical; settings: oil solution in dialysis bag MWCO 14 kDa, PBS pH 7.4 with 0.5% SDS, 25 °C, until 96 h
Experimental: In a preliminary study, the release of ROP-ST from its oil solution was investigated at 25 °C using the dialysis method. Briefly, 0.5 mL of ROP-ST oil solution was placed into a dialysis bag (MWCO: 14 kDa) and immersed into 150 mL of PBS solution (pH 7.4) with 0.5% sodium dodecyl sulfate (SDS). The dialysis media were stirred with a magnetic bar at 100 r/min. An aliquot (1 mL) was withdrawn at predetermined time intervals, and ROP-ST in the samples was quantified using HPLC−UV. […] Therefore, an “inverted-cup” method was utilized in this study to investigate the release profile of ROP-ST (Figure 3a). Briefly, a beaker containing 150 mL of PBS solution (pH 7.4, with 0.25% SDS) as the release medium was placed on a magnetic stirrer and stirred continuously at 100 r/min at room temperature (25 °C). A transparent glass cylinder (inner diameter: 1 cm) with two open endings was placed vertically in the beaker, with one ending immersed in the PBS solution and the other ending exposed to air. Then, 1 mL of ROP-ST oil solution was added to a glass cylinder, and the ending exposed in air was sealed with a plastic thin-film. In the meantime, the beaker was also sealed with a plastic thin-film. […] The concentration of ROP-ST in the samples was determined by HPLC−UV, and the cumulative release of ROP-ST was calculated accordingly. […]

[5] = liver esterase stability study of ROP-ST; format: in vitro ADME, porcine; settings: 0 U/mL, phosphate buffer (pH 8.0) without liver esterase, 25 °C
Experimental: (§1) Porcine liver esterase solutions were prepared by dissolving 4, 8, and 16 mg of porcine liver esterase powder (15 U/mg) into 12 mL of phosphate buffer (pH 8.0) to obtain porcine liver esterase solutions with the concentrations of 5, 10 and 20 U/mL, respectively. A half milliliter of blank buffer solution (pH 8 without enzyme) or porcine liver esterase solutions with the concentration of 5, 10, or 20 U/mL, respectively, was added to an EP tube, followed by adding 50 μL of methanolic solution of ROP-ST (concentration: 1100 μM) to each tube. The tubes were sealed and placed in a water bath shaker (25 °C) according to product instructions and a previous report. Three tubes were taken at each predetermined time point (0, 30, 45, 60, 75, 90, 105, and 120 min, respectively), rapidly frozen in liquid nitrogen to terminate the enzymatic reaction, and then stored at −80 °C. The subsequent treatments of the samples complied with the procedures described in “Section 2.5.1.”. The experiment was conducted in triplicates.
(§2) The enzymatic stability of ROP-ST was examined by placing the methanolic solution of the prodrug into rat plasma solution and porcine liver esterase solution. […] The hydrolysis rate constants (kobs) of the prodrug were calculated by plotting the natural logarithm of the remaining percentage against time. The corresponding half-life (t1/2) was then calculated (t1/2 = ln2/kobs). Data at 25 °C were fitted approximately to a first-order kinetic equation for the prodrug loss (Figure 4). It should be noted that the actual hydrolytic kinetics of such lipophilic prodrugs by enzymes could be complicated in vitro and in vivo, which may not fully comply with the first-order kinetics. […] The rate of enzymatic cleavage increases as the concentration of rat plasma or the concentration of porcine liver esterase increases. In fact, the injection site of ROP-ST is muscle, which contains less esterase than the plasma. Therefore, it is logical to hypothesize that the bioconversion rate of ROP-ST in the muscle should be slower, which enables sustained release and long-acting efficacy.

[6] = test system: porcine liver esterase; test: liver esterase stability study of ROP-ST; format: in vitro ADME; settings: for half-life at 100 µM: pig, porcine liver esterase solution
Experimental: as §1, §2

[7] = plasma stability study of ROP-ST; format: in vitro ADME, rat; settings: 25 °C
Experimental: Healthy male Sprague–Dawley rats (SD rats, 200 ± 20 g) were provided by the Animal Experiment Center of Nantong University (protocol code of the ethical proof: S20240617-005). Blood samples were collected from the orbital cavity and centrifuged at 10,000 r/min for 10 min (TGL-16C centrifuge; Anting Scientific Instrument Company, Shanghai, China) to obtain blank plasma. The blank plasma was mixed with saline to obtain plasma solutions of 10%, 20%, and 40% (v/v) plasma, respectively. A half milliliter of saline, or 10%, 20%, and 40% plasma solution, was added to an EP tube, respectively, followed by adding 50 μL of methanolic solution of ROP-ST (concentration: 1100 μM) to each tube. The tubes were sealed and placed in a water bath shaker (37 °C). Three tubes were taken at each predetermined time point (0, 10, 20, 30, 40, 50, 60, 70, 80, and 90 min, respectively), rapidly frozen in liquid nitrogen to terminate the enzymatic reaction, and then stored at −80 °C. The samples were lyophilized to obtain dry residues. Before analysis, the residues were dissolved in methanol and subjected to ultrasonic treatment for 30 s. The resulting solution was filtered through a filter membrane (pore size: 0.45 μm), and the remaining levels of ROP-ST in subsequent filtrates were quantified by HPLC−UV. The hydrolysis rate constants (kobs) of the prodrug were calculated by plotting the natural logarithm of the remaining percentage against time. The corresponding half-life (t1/2) was then calculated (t1/2 = ln2/kobs). The experiment was conducted in triplicates.
as §2

[8] = no reference given; cited from earlier work
[9] = 5 U/mL porcine liver esterase, pH 8.0, 25 °C
[10] = 10 U/mL porcine liver esterase, pH 8.0, 25 °C
[11] = 20 U/mL porcine liver esterase, pH 8.0, 25 °C
[12] = 0% rat plasma (saline solution without rat plasma)

solubility [1]: ~209 µM (≈ 138 µg/mL)
Structure (SMILES): CCCCCCCCCCCC(=O)OCN1C(=O)CCc2ccc(OCCCCN3CCN(c4cccc(Cl)c4Cl)CC3)cc21 [APL, aripiprazole lauroxil, reference compound]

released in the first 12 h ([1]; from soybean oil solution 27.37 mM, PBS pH 7.4 with 0.25% SDS, 25 °C): ~80% | logP at 24 h [2]: 1.88 ± 0.17 | solubility at 72 h ([3]; PBS buffer pH 7.4, pH 7.4, PBS pH 7.4, 37 °C, read-out: SPBS 7.4, the solubility in PBS 7.4 solution): ~1000 µM | solubility at 72 h ([3]; PBS buffer pH 7.4, pH 7.4, PBS pH 7.4, 37 °C, read-out: solubility in PBS 7.4 solution): ~270 µg/mL | SPBS 7.4, the solubility in PBS 7.4 solution [3]: 1040 ± 40 µM | solubility at 72 h ([3]; soybean oil, 37 °C, read-out: Soil, the solubility in soybean oil): 37000 ± 530 µM
Structure (SMILES): CCCN1CCCC[C@H]1C(=O)Nc1c(C)cccc1C [ROP, Ropivacaine]

ROP-ST detected in dialysis medium [4]: no ROP-ST was detected | half-life at 100 µM [5]: 88.4 ± 14.9 h | k × 10^3, first-order hydrolysis rate constant ([6]; 0 U/mL, phosphate buffer (pH 8.0) without liver esterase, 25 °C): 8.0 ±1.3 h^−1 | k × 10^3, first-order hydrolysis rate constant [6, 9]: 107.9 ± 29.0 h^−1 | k × 10^3, first-order hydrolysis rate constant [6, 10]: 159.6 ±1.3 h^−1 | k × 10^3, first-order hydrolysis rate constant [6, 11]: 226.1 ± 24.7 h^−1 | half-life at 100 µM [6, 9]: 6.78 ± 1.99 h | half-life at 100 µM [6, 10]: 4.34 ± 0.03 h | half-life at 100 µM [6, 11]: 3.09 ± 0.36 h | solubility [1]: ~1500 µM (≈ 856 µg/mL) | total cumulative release ([1]; from soybean oil solution 27.37 mM, PBS pH 7.4 with 0.25% SDS, 25 °C, 72 h): 69.55% | duration of sustained release ([1]; from soybean oil solution, PBS pH 7.4 with 0.25% SDS, 25 °C): more than 72 h | half-life at 100 µM [7, 12]: 82.2 ± 26.2 h | half-life at 100 µM ([7]; male, Sprague-Dawley, 10% (v/v) rat plasma in saline, 10% (v/v) rat plasma): 1.59 ± 0.06 h | half-life at 100 µM ([7]; male, Sprague-Dawley, 20% (v/v) rat plasma in saline, 20% (v/v) rat plasma): 1.04 ± 0.06 h | half-life at 100 µM ([7]; male, Sprague-Dawley, 40% (v/v) rat plasma in saline, 40% (v/v) rat plasma): 1.04 ± 0.05 h | SPBS 7.4, the solubility in PBS 7.4 solution [3]: <LOQ | Soil, the solubility in soybean oil ([3]; soybean oil, 37 °C): Miscible
Structure (SMILES): CCCCCCCCCCCCCCCCCC(=O)OCN(C(=O)C1CCCCN1CCC)c1c(C)cccc1C (stereo not drawn) [ROP-ST, ropivacaine stearoxil]
k × 10^3, first-order hydrolysis rate constant [7, 12]: 9.1 ± 3.2 h^−1 | k × 10^3, first-order hydrolysis rate constant ([7]; 10% (v/v) rat plasma): 436.6 ± 17.2 h^−1 | k × 10^3, first-order hydrolysis rate constant ([7]; 20% (v/v) rat plasma): 665.0 ± 35.2 h^−1 | k × 10^3, first-order hydrolysis rate constant ([7]; 40% (v/v) rat plasma): 666.9 ± 30.7 h^−1

Structure (SMILES): O=C1CCc2ccc(OCCCCN3CCN(c4cccc(Cl)c4Cl)CC3)cc2N1 [aripiprazole]
pKa [8]: 7.46
